Measured values: ChEMBL document CHEMBL5303711, “ECBD screening data for assay EOS300108” (2023)
Counter-ions that a name gives are not always drawn. Active and inactive are the calls of the source. No rule for the calls is given here.

Test: Cytotoxicity activity against human HepG2 cells assessed by CellTiter-Glo luminescent cell viability assay.
Assay type: toxicity, cell-based
Set-up: assay stage confirmatory assay, source tissue liver
Settings: HepG2 cells, read-out: IC50 relative

Compound	CC50
CC[C@]1(O)C[C@@H]2CN(CCc3c([nH]c4ccccc34)[C@@](C(=O)OC)(c3cc4c(cc3OC)N(C)[C@H]3[C@@](O)(C(=O)OC)[C@H](OC(C)=O)[C@]5(CC)C=CCN6CC[C@]43[C@@H]65)C2)C1 [VINBLASTINE SULFATE]	4 µM (active)
Cc1cc(N2CCC[C@H](c3c[nH]c4ncccc34)C2)n2ncnc2n1	8.5 µM (active)
COc1cc(N2CCC(O)CC2)ccc1Nc1cc(Nc2ccccc2S(=O)(=O)C(C)C)c2cc[nH]c2n1	12.9 µM (active)
COc1nc(OCc2cccc(-c3ccccc3)c2C)ccc1CNCCNC(C)=O	4 µM (active)
CC(C)NC(=O)N1CC(Oc2ccc(-c3noc(C4CC4)n3)cc2)C1	2.6 µM (active)
COc1ccc(NC(=O)c2cc(-c3ccccc3O)no2)cc1	12.3 µM (active)
COc1cc2c(NC3CCN(C(C)C)CC3)nc(N3CCC(F)(F)CC3)nc2cc1OCCCN1CCCC1	3.1 µM (active)
Clc1ccc(CSC(Cn2ccnc2)c2ccc(Cl)cc2Cl)cc1 (centres undefined) [SULCONAZOLE NITRATE]	14.9 µM (inactive)
COc1ccc2c(C)nc(Nc3nc(C)c(C)c(=O)[nH]3)nc2c1	6.7 µM (active)
Cc1nc2n(c(=O)c1C)CN(CCCO)CN2c1ccc(Cl)cc1Cl	50 µM (inactive)
COc1ccc(OC)c([N+]2=C3SCCCN3C(O)(c3ccc(C)cc3)C2)c1 (centres undefined)	11.6 µM (active)
CCN(C(=O)c1c[nH]n2c1nc(=O)c1ccccc12)[C@@H](C)c1ccc(F)cc1	5 µM (active)
CCN1CCN(CCCNC(=O)c2cc3c(=O)n(C)c4ccccc4c3s2)CC1	4.1 µM (active)
N#Cc1nccnc1Sc1nnc(COc2ccc(Cl)cc2)o1	2.9 µM (active)
CCc1nn(CCCN2CCN(c3cccc(Cl)c3)CC2)c(=O)n1CCOc1ccccc1 [NEFAZODONE HYDROCHLORIDE]	14.4 µM (active)
c1coc(CNc2ncnc3ccccc23)c1	9.5 µM (inactive)
Cc1csc2nc(CN[C@H](c3ccc(Cl)cc3)C3CC3)cc(=O)n12	2.6 µM (active)
O=C(NCCN1CCCC1)C1CCN(c2ncccc2-c2nc(-c3ccccc3)no2)CC1	7.9 µM (active)
COc1cc2c(NC3CCN(CC4CCCCC4)CC3)nc(N3CCCN(C(C)C)CC3)nc2cc1OCCCN1CCCCC1	1.1 µM (active)
CNC(=O)c1cc(Oc2ccccc2N)ccn1	32.7 µM (inactive)
O=[N+]([O-])c1ccc(-c2nc(-c3ccncc3)c(-c3ccc(F)cc3)[nH]2)cc1 [PD-169316]	50 µM (inactive)
Cc1ccccc1Oc1ccnc(CNC(=O)c2nccn2C)c1	1.1 µM (active)
Cc1cc(NC(=O)CN2CCCC[C@@H]2C)n(C)n1	50 µM (inactive)

Compound	CC50
Cn1cnc2c(F)c(Nc3ccc(Br)cc3F)c(C(=O)NOCCO)cc21 [BINIMETINIB]	< 0.1 µM (active)
CC1(C)CC[C@]2(C(=O)O)CC[C@]3(C)C(=CC[C@@H]4[C@@]5(C)CCC(=O)C(C)(C)[C@@H]5CC[C@]43C)[C@@H]2C1 [OLEANONIC ACID]	8.4 µM (inactive)
CC(C)C[C@H](NC(=O)[C@H](Cc1ccccc1)NC(=O)c1cnccn1)B(O)O [BORTEZOMIB]	< 0.1 µM (active)
Cc1cc(C)nc(-n2ncc(Cl)c(Cl)c2=O)n1	3.8 µM (active)
COc1ccc(CNc2nc(N(CCO)CCO)nc3c2ncn3C(C)C)cc1	0.8 µM (active)
CCS(=O)(=O)c1ccc(NC(=O)c2ccc(F)c(S(=O)(=O)N3CCCCC3)c2)cc1	6.1 µM (inactive)
Nc1ncc(-c2ccnc(Nc3ccncc3)n2)c(CC2CC2)n1	7 µM (active)
Cn1cc(C2=C(c3cn(CCCSC(=N)N)c4ccccc34)C(=O)NC2=O)c2ccccc21	1.4 µM (active)
CN[C@H]1CCCN(C(=O)c2ccc(CN)cc2)C1	14.3 µM (inactive)
Cc1ccc(NC(=O)Cc2ccc(-n3cccn3)cc2)nc1	0.4 µM (active)
COc1ccc(-c2cc3c4nn(CC(=O)Nc5cccc(OC)c5)c(=O)n4ccn3n2)cc1	50 µM (inactive)
Cc1c(CNCCCN2CCCCC2CO)oc2ccccc12 (centres undefined)	9.8 µM (active)
Cc1sc2c(c1C)C(c1ccc(Cl)cc1)=N[C@@H](CC(N)=O)c1nnc(C)n1-2	0.3 µM (active)
COc1cc(OC)cc(-c2nnc(Nc3nc4c(F)cccc4s3)o2)c1	27.8 µM (inactive)
Cn1cc(-c2nc(C(=O)Nc3cccnc3-n3cncn3)cs2)cn1	2 µM (active)
Cc1ccc(-c2cnn3c(N4CCN(CCO)CC4)cc(C)nc23)cc1	8.9 µM (active)
O=C(Nc1ccc2c(c1)S(=O)(=O)C=C2)c1ncoc1-c1ccco1	10.9 µM (inactive)
N#Cc1ccc(CN2CCN(C(=O)c3ccc(Cn4cccn4)cc3)CC2)cc1	3.9 µM (active)
CN(C)CCCn1cc(C2=C(c3c[nH]c4ccccc34)C(=O)NC2=O)c2ccccc21 [GF-109203]	4.8 µM (active)
COc1cc([C@@H]2c3cc4c(cc3[C@@H](O[C@@H]3O[C@@H]5CO[C@@H](c6cccs6)O[C@H]5[C@H](O)[C@H]3O)[C@H]3COC(=O)[C@H]23)OCO4)cc(OC)c1O [TENIPOSIDE]	6.5 µM (active)
COc1ccc2c(c1)OC(C)(C)CN(C(=O)Nc1nc(C)no1)C2	11.9 µM (active)
O=C1c2ccccc2-n2c1nc1ccccc1c2=O [TRYPTANTHRIN]	4.3 µM (active)
Cc1ccc(-c2cccc(CN3[C@@H]4CC[C@H]3[C@H]3CNC[C@H]34)c2)o1	8.8 µM (active)

Compound	CC50
O=C(N[C@H]1CCCc2sccc21)c1cccc2c1OCO2	6.5 µM (active)
CC1(C)C=Cc2c(ccc3c2OC[C@@H](c2ccc(O)cc2O)C3)O1 [GLABRIDIN]	12.8 µM (active)
CCOC(=O)N1CCC(CN(Cc2ccc(Cl)cc2)Cc2ccc([N+](=O)[O-])s2)C1 (centres undefined) [SR9009]	24.4 µM (inactive)
O=C(NCc1ccc(-n2ccnc2)nc1)[C@@H]1CC(c2ccccc2)=NO1	6.3 µM (active)
CC(=O)N1c2ccc(-c3ccc(C(=O)O)cc3)cc2[C@H](Nc2ccc(Cl)cc2)C[C@@H]1C	0.9 µM (active)
CCC1(N(C)C)CCN(c2nc(N)c3cc(OC)c(OC)cc3n2)CC1	11.2 µM (active)
COc1ccc(NC(=O)Cn2sc3ccccc3c2=O)cc1OC	12.2 µM (active)
CNc1nc(N2CCN(C)CC2)nc2ccccc12	5.5 µM (active)
O=C(c1ccc(F)c(F)c1Nc1ccc(I)cc1F)N1CC(O)(C2CCCCN2)C1 (racemic)	< 0.1 µM (active)
COc1cc(N)c(Cl)cc1C(=O)NC1CCN(CCCOc2ccc(F)cc2)CC1OC (centres undefined) [CISAPRIDE MONOHYDRATE]	38 µM (inactive)
Nc1nc(NCCNc2ncc(-n3ccnc3)c(-c3ccc(Cl)cc3Cl)n2)ccc1[N+](=O)[O-]	50 µM (inactive)
COc1cc(-c2noc(-c3ccc4c(c3)OCO4)n2)cc(OC)c1OC	0.1 µM (active)
CNc1ccc(Br)cc1N	4.1 µM (active)
CC1CCN(CC(O)COc2ccccc2C(C)(C)C)CC1 (centres undefined)	9.6 µM (active)
CON(C)C(=O)CSc1nc2sc(C)c(C)c2c(=O)n1Cc1ccccn1	0.6 µM (active)
CCN1CCN(c2ccc(Nc3cc(N(C)C(=O)Nc4c(Cl)c(OC)cc(OC)c4Cl)ncn3)cc2)CC1 [INFIGRATINIB]	3.3 µM (active)
NCC1CN(CC2CC2)CC12CCCCC2 (centres undefined)	13.1 µM (inactive)
O=C(Nc1ccnc2ccnn12)c1cc2ccccc2c(=O)[nH]1	0.1 µM (active)
O=C(NCCCNc1nc(Nc2cccc(NC(=O)N3CCCC3)c2)ncc1I)c1cccs1 [BX-795]	5.2 µM (active)
COc1cc(C(=O)NC2CCN(C)CC2)c(F)cc1Nc1ncc2c(n1)N(C1CCCC1)CC(F)(F)C(=O)N2C	4.1 µM (active)
COc1ccc(OCC(=O)N2CCN(S(=O)(=O)c3ccc4c(c3)NC(=O)C(C)O4)CC2)cc1 (centres undefined)	5.8 µM (active)
CCCN(CCC)CCNC(=O)Cn1cnc2onc(-c3ccc(Cl)cc3)c2c1=O	5.9 µM (active)
Cc1cccn2c(CC(=O)N3CCOc4ccc(Cl)cc4C3)cnc12	4.9 µM (active)

Compound	CC50
Cc1ccc2nccc(N3CCCC(CCC(=O)N(C)C)C3)c2c1 (centres undefined)	8.3 µM (active)
Cn1c(N2CCN(Cc3ccccc3)CC2)nc2c1c(=O)n(Cc1ccccc1)c(=O)n2C	13.4 µM (inactive)
CCc1cncnc1N1CCN(Cc2nc3cc(C(F)(F)F)ccc3[nH]2)CC1	9.5 µM (active)
Cc1ccc(S(=O)(=O)/N=C2\C=C(Sc3nc[nH]n3)C(=O)c3ccccc32)cc1	4.8 µM (active)
Cc1cc(N)n(S(=O)(=O)c2oc(-c3ccccc3)nc2C#N)n1	7.6 µM (active)
CCc1onc(C)c1C1CCCN1Cc1ccc(OC)c(O)c1 (centres undefined)	6.1 µM (active)
CC(=O)NCc1ccc(C(=O)Cn2ncc(Cl)c(Cl)c2=O)cc1	8 µM (active)
CC(C)N(CCC(=O)c1ccc2ccccc2c1)Cc1ccccc1	12.9 µM (active)
C[C@@H](NC1CCN(c2ccc(F)c(F)c2)CC1)[C@@H](O)c1ccc(O)cc1	14.6 µM (active)
C=CC(=O)Nc1ccc(CN2C(=O)N(c3cc(OC)cc(OC)c3)Cc3cnc(Nc4ccc(N5CCN(C)CC5)cc4)nc32)cc1	3.7 µM (active)
CC(C)OCCCN[C@H]1CS(=O)(=O)C[C@@H]1S(=O)(=O)c1ccc(Cl)cc1	16 µM (active)
O=C(Nc1nc(-c2cccnc2)cs1)c1ccccn1	11.6 µM (active)
CC1CCN(CCNC(=O)c2c(O)c3sccc3n(Cc3ccccc3)c2=O)CC1	22.3 µM (inactive)
Cc1cccc(-c2noc(-c3ccc(N4CCN(C)CC4)nc3)n2)c1	5 µM (active)
CN(C)CCNc1oc(-c2ccc(S(=O)(=O)N3CCCCCC3)cc2)nc1C#N	18 µM (inactive)
COC(=O)C[C@@H]1N=C(c2ccc(Cl)cc2)c2c(sc(C)c2C)-n2c(C)nnc21	0.1 µM (active)
CN1CCC(Nc2nc(Nc3ccc(Oc4ccccc4)cc3)c3c(=O)[nH]cc(Br)c3n2)CC1 [DENFIVONTINIB]	0.4 µM (active)
COc1ccc2c(c1)C=C(C(=O)NCc1ccc(OC)c(OC)c1)CO2	6.3 µM (active)
O=C(Nc1cc(Oc2cc(F)c(NC(=O)C3(C(=O)Nc4ccc(F)cc4)CC3)cc2F)ccn1)C1CC1 [ALTIRATINIB]	0.2 µM (active)
CCC1(CC)CCN(c2ncnc3[nH]ccc23)CC1	8.3 µM (active)
